Measurements published in patent publication US20120276070A1, “Induced Pluripotent Stem Cells and Related Methods” (VITRO DIAGNOSITICS, INC., priority 2009, published 2012).
No end group written: not given here.

What was measured:
POU5F1 (Oct3/4) = POU5F1 (Oct3/4) expression after adding small molecules to the adult stem cell culture medium; type: cell-based
native human MSC = assay: Puromycin dose-response / selection: killing of native, non-transfected human MSC; type: cell-based; conditions: 10 μg/ml puromycin in medium
Procedure: Human mesenchymal stem cells (Vitro Diagnostics, Inc., catalog number SC00A1) were cultured at 7500/cm^2 in T25 flasks (Greiner Bio-One catalog number 690-190) following coating at 2 μg/cm^2 with poly-L-lysine (Sigma Catalog number P1399) using low serum complete MSC cell culture medium (Vitro Diagnostics, Inc., catalog number SC00B1). Cultures were maintained here and throughout this study in a 5% O2, 5% CO2, balance N2 gas environment in a humidified chamber maintained at 37° C. Following two days of continuous culture and at about 40% confluence, the cultures were exposed to 1/15 dilution of the POU5-F1 pseudovirus stock in low serum medium containing 5 μg/ml polybrene (Sigma catalog number H9268). Following 10 hours exposure to the pseudovirus particles, the cultures were washed twice with PBS and cultured in low serum medium (Vitro SC00B1). Selection of stable transfectants began 16 hours later using 3 to 10 μg/ml puromycin (Sigma catalog number P7255) which was a sufficient concentration to kill native, non-transfected human MSC. Single colony clones were established by limited dilution cloning in 96 well plates (Greiner Bio-One, catalog number 655-160) using low serum MSC medium (Vitro Diagnostics, Inc., catalog number SC00B1) containing 10 μg/ml puromycin. […]

[1] = added to the medium at 1 to 2 mM

## Nc1ncn([C@@H]2O[C@H](CO)[C@@H](O)[C@H]2O)c(=O)n1 [5-azacytidine]
POU5F1 (Oct3/4); added to the medium at 0.5 mM, transient periods </=48 hours
  POU5F1 (Oct3/4) expression: increased POU5F1 (Oct3/4) expression

## C[C@]12CCC(=O)C=C1CC[C@@H]1[C@@H]2[C@@H](O)C[C@@]2(C)[C@H]1CC[C@]2(O)C(=O)CO [Hydrocortisone, hydrocortisone]
POU5F1 (Oct3/4); added to the medium, preferably at 80 to 110 nM
  POU5F1 (Oct3/4) expression: increased POU5F1 (Oct3/4) expression

## O=C1O[C@H]([C@@H](O)CO)C(O)=C1O [Vitamin C, ascorbic acid]
POU5F1 (Oct3/4); added to the medium at 60 μM
  POU5F1 (Oct3/4) expression: increased POU5F1 (Oct3/4) expression

## COc1ccc(C[C@H](N)C(=O)N[C@H]2[C@@H](O)[C@H](n3cnc4c(N(C)C)ncnc43)O[C@@H]2CO)cc1 [puromycin]
Native human MSC
  effect on wild type MSCs: lethal

## CCCC(=O)[O-].[Na+] [sodium butyrate]
POU5F1 (Oct3/4); [1]
  POU5F1 (Oct3/4) expression: increased POU5F1 (Oct3/4) expression

## CCCC(CCC)C(=O)O [valproic acid]
POU5F1 (Oct3/4); [1]
  POU5F1 (Oct3/4) expression: increased POU5F1 (Oct3/4) expression

## gonadotropin releasing hormone (QHWSYGLRPG; ends and bridges not checked; UniProt P01148 24-33, looked up) [GnRH]
POU5F1 (Oct3/4); added to the medium at 75 pg/ml
  POU5F1 (Oct3/4) expression: increased POU5F1 (Oct3/4) expression
